pEC50, pIC50: −log10 of the molar value. Several values for one entry are separate records, joined by “and”; a condition that tells them apart may be missing. Equal entries are not always repeated.
Tests used:
[1] = system: rat mesenteric artery; experiment: Vasodilation on rat mesenteric small arteries; conditions: relaxation of small arteries (200-300 µm) precontracted with endothelin
Excerpt: Small arteries (200-300 µm in diameter) isolated from rat mesentery were precontracted with endothelin prior to addition of the test substances and tested for relaxation.

[2] = molecular target: T1, SR Ca^2+-ATPase (Canis lupus familiaris, UniProt O46674); experiment: Sarcoplasmic reticulum Ca^2+-ATPase assay; type: biochemical, dog; conditions: for pIC50: read-out: SR Ca^2+-ATPase IC50 = conc. for 50% inhibition; for SR Ca^2+-ATPase Activity: 0 µM = 100, dog cardiac SR
T1 construct: Effect of gingerols and their derivatives on the Ca^2+-ATPase activity of dog cardiac SR; from tissue; host or cells: dog heart (cardiac sarcoplasmic reticulum)
T1 sequence (O46674 whole entry): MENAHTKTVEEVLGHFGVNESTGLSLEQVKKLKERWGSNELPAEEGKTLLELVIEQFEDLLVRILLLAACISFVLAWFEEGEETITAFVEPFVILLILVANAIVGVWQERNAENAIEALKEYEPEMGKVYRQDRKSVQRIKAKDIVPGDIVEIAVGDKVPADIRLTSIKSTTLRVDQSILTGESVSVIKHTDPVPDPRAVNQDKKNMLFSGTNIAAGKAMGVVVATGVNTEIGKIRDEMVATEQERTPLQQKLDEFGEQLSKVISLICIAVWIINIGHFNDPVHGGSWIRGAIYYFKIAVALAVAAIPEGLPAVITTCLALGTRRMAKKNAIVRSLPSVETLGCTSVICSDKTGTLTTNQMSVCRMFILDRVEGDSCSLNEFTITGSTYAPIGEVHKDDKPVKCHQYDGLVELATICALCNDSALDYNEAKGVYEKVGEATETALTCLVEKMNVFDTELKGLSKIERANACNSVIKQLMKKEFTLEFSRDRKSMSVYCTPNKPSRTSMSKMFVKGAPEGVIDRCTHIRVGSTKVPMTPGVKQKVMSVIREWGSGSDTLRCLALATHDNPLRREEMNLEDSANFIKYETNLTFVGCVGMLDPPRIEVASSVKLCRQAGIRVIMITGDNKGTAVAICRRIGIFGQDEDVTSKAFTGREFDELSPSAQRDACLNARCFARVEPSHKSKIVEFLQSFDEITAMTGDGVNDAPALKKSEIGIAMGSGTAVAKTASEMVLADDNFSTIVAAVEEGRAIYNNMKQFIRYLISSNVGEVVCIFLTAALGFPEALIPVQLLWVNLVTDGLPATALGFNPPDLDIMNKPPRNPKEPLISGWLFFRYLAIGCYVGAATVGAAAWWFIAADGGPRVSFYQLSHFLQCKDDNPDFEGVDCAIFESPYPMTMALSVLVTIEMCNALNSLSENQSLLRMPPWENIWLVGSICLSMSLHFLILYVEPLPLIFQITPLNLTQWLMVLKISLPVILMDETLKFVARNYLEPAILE
Method: A portion at each concentration (54 µl) was aliquoted into 4 designated wells of the microplate (two of four wells were controls). Each well was mixed with ATP solution (20 mM, 6 µl), except the controls, using an 8 channel pipette. The controls were assayed in the absence of ATP or calcium.
The plate was incubated with the lid on, for 30 min at 37°C, colour reagent (160 µl) was then added and mixed with citrate solution (34%, 30 µl). The plate was developed at room temperature for 30 min then absorbance at 655 nm was read from the microplate reader. The Ca^2+-ATPase activity was quantitated, from a Pi standard curve, as concentration of liberated inorganic phosphate.
Stock solutions (10 mM) of test substance were prepared in DMSO, then series dilutions were made either in DMSO or in 1M HEPES to produce the dose-response concentrations. The maximum concentration of DMSO in the final assay solution was 2.5%.
Each concentration of test substance was assayed in duplicate in the presence and absence of ATP or calcium. Phosphate standards are run on each plate as follows:
Effect of gingerols and their derivatives on the Ca^2+-ATPase activity of dog cardiac SR.

[3] = system: guinea pig atria; experiment: Organ bath assay on isolated guinea pig atria (rate and force of contraction); conditions: guinea pig atria
Method: Male guinea pigs, 3-4 weeks old, were killed by rapid cervical dislocation without induced anaesthesia. Then, the guinea pigs were dissected to isolate the atria which were immediately mounted vertically in an organ bath containing Krebs-Henseleit solution oxygenated with carbogen.
One gram tension was applied to the atria and the base line continuously adjusted until it was stable for 20 mins. The rate and force of contraction were recorded using Mac Lab equipment.
Test substances in DMSO were assayed to a maximum concentration of 50 µM at a final concentration of 2.5 % of DMSO.

[4] = Brine shrimp toxicity bioassay; type: in vivo; conditions: Artemia salina (brine shrimp), in vivo; 24 hours, 2% DMSO
Excerpt: (§1) The brine shrimp assay procedure determines LC50 values of active compounds. Activities of a broad range of known active compounds are manifested as toxicity to brine shrimp (Artemia salina Leach). There are many applications of the assay including analysis of toxic substances, anaesthetics, morphine-like substances and cocarcinogenicity of phorbol esters.
(§2) The method for testing solvent toxicity used was basically that reported by J L McLaughlin in Methods of Plant Biochemistry (1991), vol. 6 (K Hostettman, ed.), Academic Press, London, 1-32. DMSO solutions of the substances to be tested were added directly to the vials containing the brine shrimp. As the concentration of DMSO that we wished to use was higher than the recommended 1% v/v testing of the toxicity of the DMSO was therefore necessary. The concentrations of DMSO tested on the shrimp, along with the results from the assay which was done in duplicate are listed below.
(§3) Brine shrimp toxicity was assayed, except for some minor modifications, according to the method of McLaughlin et al as reported in Brine Shrimp: A convenient bioassay for active plant constituents, B N Meyer, N R Ferrigni, J E Putnam, L B Jacobsen, D E Nichols and J L McLaughlin in Planta Medica (1982), 45, 31-34 and Crown gall tumours on potato discs and brine shrimp lethality: Two simple bioassays for higher plant screening and fractionation. J L McLaughlin. Methods of Plant Biochemistry (1991), vol. 6 (K Hostettman, ed.), Academic Press, London, 1-32. Ten shrimp were transferred to each of the vials and the volume adjusted to 4.9 mL. Each dose was performed in triplicate, including the control. In quick succession, the appropriate volume of additional DMSO for each dose, required to achieve a final concentration of 2%, was added before the appropriate volume of test solution. The vials were gently mixed and the time noted. After 24 hours, the number of survivors were counted and % mortality was determined. The test compounds were assayed at concentrations of 100 µM, 25 µM, 5 µM, 1 µM and 0.2 µM (and where appropriate concentrations of 0.04 µM and 0.008 µM).
(§4) The brine shrimp were able to survive without food in the vials over the 24 hour period and were therefore not fed.
(§5) The dose-response curves were constructed using the Sigmaplot computer program and the LC50 value was calculated from the intersection point of the curve and the 50 % mortality line. The LC50 values were expressed in both µM and µg/mL.

[5] = molecular target: T2, Lipoxygenase (LP) (Rattus norvegicus, UniProt P12527); experiment: Lipoxygenase assay with cell-free enzyme from RBL 2H3 cells (EIA); type: biochemical; conditions: final concentration of 10 µM
T2 construct: cell-free enzyme (Wong et al, 1991) prepared from rat basophilic leukemia (RBL) 2H3 cell lines; endogenous in cells; host or cells: RBL 2H3 (rat basophilic leukemia), 15,000 g supernatant of cells disrupted by nitrogen cavitation
T2 sequence (P12527 1-673): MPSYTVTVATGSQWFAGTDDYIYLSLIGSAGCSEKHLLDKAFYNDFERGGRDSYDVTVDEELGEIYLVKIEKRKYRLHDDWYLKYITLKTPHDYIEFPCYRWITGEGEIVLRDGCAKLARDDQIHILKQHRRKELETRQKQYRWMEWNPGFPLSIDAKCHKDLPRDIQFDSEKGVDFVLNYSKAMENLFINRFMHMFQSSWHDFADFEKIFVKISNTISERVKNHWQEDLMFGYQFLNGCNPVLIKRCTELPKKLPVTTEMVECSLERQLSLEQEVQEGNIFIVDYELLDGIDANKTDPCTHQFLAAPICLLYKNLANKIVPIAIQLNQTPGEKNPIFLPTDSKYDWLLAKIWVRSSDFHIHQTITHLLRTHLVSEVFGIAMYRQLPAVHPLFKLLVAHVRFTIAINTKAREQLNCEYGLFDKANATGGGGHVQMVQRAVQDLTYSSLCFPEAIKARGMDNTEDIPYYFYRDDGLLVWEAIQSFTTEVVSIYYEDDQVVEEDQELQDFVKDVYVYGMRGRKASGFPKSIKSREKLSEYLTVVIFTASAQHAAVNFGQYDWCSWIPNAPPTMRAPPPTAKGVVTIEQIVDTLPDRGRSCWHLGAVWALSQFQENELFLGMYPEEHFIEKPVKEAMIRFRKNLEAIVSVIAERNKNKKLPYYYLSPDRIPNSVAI
Method: Lipoxygenase (LP) assay was performed with cell-free enzyme (Wong et al, 1991) prepared from rat basophilic leukemia (RBL) 2H3 cell lines. Cells were cultured in EMEM containing 10% fetal calf serum and antibiotic until cells reached confluence. Harvested cells were resuspended in Hepes (10 mM) buffer, pH 7.4, containing 1 mM EDTA at 1 x 10^7 cells/ml, and disrupted by nitrogen cavitation using a Parr bomb at 750 psi for 15 min. The broken cells were centrifuged at 15,000 g for 30 min. Aliquots (0.1 ml) of the supernatant were preincubated with or without drugs in Hepes buffer (10 mM Hepes, pH 7, 1 mM EDTA and 150 mM NaCl) for 5 min, and the reaction was initiated with the addition of 50 µl of CaCl2 (16 mM), 50 µl of ATP (2 mM), 5 µl of PAF (2.5 mg/ml) and 5 µl of AA (2.5 mM). The reaction mixture ([…]) was incubated at room temperature for a further 8 min, then diluted with EIA buffer at 1/200 and 1/2000 dilutions and stored on ice for EIA following the protocol provided with the kit.
Validation of LP enzyme activity was carried out by a UV spectrophotometric method in which the enzyme activity was characterised against various concentrations of Ca^2+, ATP, PAF and AA with the measurement of the formation of diene conjugated products of LP at 235 nm.
All compounds were dissolved in DMSO and assayed at a final concentration of 10 µM. NDGA was used as reference compound. The concentration of DMSO in the assay was maintained at 1.5%.

[6] = system: brine shrimp (Artemia salina Leach); experiment: Brine shrimp toxicity bioassay; type: in vivo
Excerpt: as §1, §2, §3, §4, §5

## CCCCCCCCCC(O)CCc1ccc(O)c(OC)c1 (single isomer, unassigned; enantiomer-1) [enantiomer-1, enantiomer-1 of 1-(4-hydroxy-3-methoxyphenyl)dodecan-3-ol]
[1]
  pEC50: 6.30

## CCCCCC(O)CC(=O)CCc1ccc(O)cc1 (stereo not shown) [[6]-demethoxygingerol, 5-hydroxy-1-(4-hydroxyphenyl)decan-3-one]
[2]
  pIC50: < 4.00
[3]; result in words
  FORCE OF CONTRACT^n: inactive
  HEART RATE: inactive
[4]
  LC50 at 24 h: > 100 µM and > 26 µg/mL

## CCCCCCCCCC(O)CC(=O)c1ccc(O)c(OC)c1 (stereo not shown) [3-hydroxy-1-(4-hydroxy-3-methoxyphenyl)dodecan-1-one]
[2]; 1 µM
  SR Ca^2+-ATPase Activity: 122
[2]; 5 µM
  SR Ca^2+-ATPase Activity: 111
[2]; 10 µM
  SR Ca^2+-ATPase Activity: 133
[2]; 25 µM
  SR Ca^2+-ATPase Activity: 147
[2]; 50 µM
  SR Ca^2+-ATPase Activity: 158
[2]; 100 µM
  SR Ca^2+-ATPase Activity: 149
[2]; @ 10 µM
  SR Ca^2+-ATPase ↑ increase or stimulation: ↑60% @ 10
[2]
  pIC50: 4.30
[3]; @ 30 (µM)
  FORCE OF CONTRACT^n ↑ increase: ↑11% @ 30
[4]
  LC50 at 24 h: 10 µM and 3.2 µg/mL

## CCCCCCCC=CC(=O)C=Cc1ccc(O)c(OC)c1 [1-(4-hydroxy-3-methoxyphenyl)dodecane-1,4-diene-3-one]
[4]
  LC50 at 24 h: 5.4 µM and 1.6 µg/mL
[5]
  activity at 10 µM: 2%

## CCCCCCCCCC(O)CCc1ccc(O)c(OC)c1 (single isomer, unassigned) [enantiomer-2, 1-(4-hydroxy-3-methoxyphenyl)dodecan-3-ol]
[1]; Rattus norvegicus
  pEC50: 6.49

## CCCCCCCC(O)CC(=O)C=Cc1ccc(O)cc1 (stereo not shown) [5-hydroxy-1-(4-hydroxyphenyl)dodecan-1-ene-3-one]
[4]
  LC50 at 24 h: 2.6 µM and 0.75 µg/mL

## C[S+](C)[O-] [DMSO, dimethyl sulfoxide]
[6]; Conc 1 % v/v
  % Deaths: 0%
[6]; Conc 2 % v/v
  % Deaths: 0%
[6]; Conc 3 % v/v
  % Deaths: 0%
[6]; Conc 4 % v/v
  % Deaths: 0%
[6]; Conc 5 % v/v
  % Deaths: 9%
[6]; Conc 7 % v/v
  % Deaths: 12%
[6]; Conc 9 % v/v
  % Deaths: 18%
[6]; Conc 11 % v/v
  % Deaths: 57%
[6]; Conc 13 % v/v
  % Deaths: 96%
[6]; Conc 15 % v/v
  % Deaths: 100%
[6]; Conc 20 % v/v
  % Deaths: 100%
[6]; Conc 25 % v/v
  % Deaths: 100%

Source: patent EP1056700B1, “MEDICINAL USES OF PHENYLALKANOLS AND DERIVATES” (ZingoTX Pty Ltd, priority 1997, dated 1999)
